# Measured values reported in patent US8946162B2, “Treatment of tumors” (priority 2008, dated 2015).
# Assays:
# Ang II [1] = conditions: reaction conditions identical; material expressed in insect cells; cited from earlier work
# Ang II [2] = experiment: Determination of specific ACE2 activity (conversion of Ang II to Ang 1-7, RP-HPLC); assay type: biochemical
# Description: Furthermore, both Ang II and Ang 1-7 peaks were recognised and integrated in the chromatograms. The peptide concentrations were determined using calibration curves. Enzymatic conversion and specific enzyme activity were also determined.
# [3] = Terminal half-life measured in various species; assay type: in vivo; conditions: including rhesus monkeys
# From the text: ACE2 is metabolised slowly due to the large, highly branched and complex sugar moiety.
# human tumour cell line = experiment: Suppression of tumour cell growth (cell count in haemocytometer); assay type: cell-based; conditions: up to day 17; for cell growth (cell count): culture medium RPMI 1640 10% FCS supplemented with the substance alone (100 nM peptide or 20 μg/ml sACE2), versus control medium
# Description: A human tumour cell line was sowed at a density of 2.5×10^4 cells/ml in 200 μl RPMI 1640 in 10% FCS in 96-well plates and incubated at 37° C. and 5% CO2. The influence of various active components of the RAS were evaluated using the following test systems. All the analyses were carried out as triple determinations (sACE2=soluble ACE2 without C-terminal membrane domain): • Condition A. Culture medium RPMI 1640 with 10% FCS as control • Condition B. Culture medium supplemented with 100 nM Ang II • Condition C. Culture medium supplemented with 100 nM Ang 1-7 • Condition D. Culture medium supplemented with 20 μg/ml sACE2 • Condition E. Culture medium supplemented with 20 μg/ml sACE2 and […]
# Every day 100 μl of medium was removed and replaced by the same volume of fresh specific medium. The cell count was determined on days 2, 3, 6, 8, 10, 13, 15 and 17 by multiple counting in a haemocytometer. A separately prepared test plate was used for each determination.
# [4] = Aggregation of the ACE2 preparation in physiological buffer; assay type: physicochemical; conditions: concentrated protein solution in physiological buffer
# From the text: The dimer-ACE2 preparation produced according to Example 1 is present as a stable, highly pure and concentrated protein solution in physiological buffer and can be stored and administered […].
# The ACE2 preparation also has full enzyme activity.
# [5] = 250 ng/ml ACE2, 80 μM Ang II, pH 6.5, 18 minutes at 37° C.
substance,measurement,setting,value
"ACE2 (Vickers et al.): ACE2 of Vickers et al., expressed in insect cells, same amino acid sequence, glycosylated to a considerably lesser extent",catalytic ACE2 activity published by Vickers et al.,Ang II [1],3.5 s⁻¹
"ACE2 preparation produced according to Example 1: Soluble section of human ACE2 expressed in CHO, fully N-glycosylated, obtained as a dimer with two Zn2+",catalytic activity kkat based on Ang II conversion,Ang II [2]; [5],8.0 ± 0.3 s⁻¹
same,catalytic activity kkat in relation to Ang 1-7 conversion,Ang II [2]; [5],8.8 ± 0.2 s⁻¹
same,higher activity than the figures of Vickers et al.,Ang II [2]; present preparation versus Vickers material,240%
same,terminal half-life,[3],at least 10.5 hours
same,cell growth (cell count),human tumour cell line,marginally increased growth
same,cell growth (cell count) in the presence of Ang II,human tumour cell line; culture medium supplemented with 20 μg/ml sACE2 and […],reduced cell growth
same,aggregation to multimers,[4],does not exhibit any aggregation to multimers
"Ang 1-7: Effector peptide of the RAS, antagonist of Ang II, formed from Ang II by ACE2 (DRVYIHP; Angiotensin 1-7; UniProt P01019 25-31, looked up) [reference compound]",cell growth (cell count),human tumour cell line,reduced cell growth
"Asp-Arg-Val-Tyr-Ile-His-Pro-Phe (DRVYIHPF; printed: Asp-Arg-Val-Tyr-Ile-His-Pro-Phe) [Ang II, reference compound]",cell growth (cell count),human tumour cell line,distinctly increased cell growth
